Laboratory results: the kinase profiling compilation of Christmann-Franck et al. (2016)

Legend:
Assay in all cases: KINOMEscan competition binding
Conditions in all cases: compound 10.0 µM
ACVR1B (human) = ACVR1B (human) (UniProt P36896)
CDC2L2 (human) = CDC2L2 (human) (UniProt Q9UQ88)
CDK16 (human) = CDK16 (human) (UniProt Q00536)
DCLK1 (human) = DCLK1 (human) (UniProt O15075)
DSTYK (human) = DSTYK (human) (UniProt Q6XUX3)
EPHB2 (human) = EPHB2 (human) (UniProt P29323)
FES (human) = FES (human) (UniProt P07332)
FLT3 (human) = FLT3 (human) (UniProt P36888)
Chain of FLT3 (human) (P36888 whole entry, looked up): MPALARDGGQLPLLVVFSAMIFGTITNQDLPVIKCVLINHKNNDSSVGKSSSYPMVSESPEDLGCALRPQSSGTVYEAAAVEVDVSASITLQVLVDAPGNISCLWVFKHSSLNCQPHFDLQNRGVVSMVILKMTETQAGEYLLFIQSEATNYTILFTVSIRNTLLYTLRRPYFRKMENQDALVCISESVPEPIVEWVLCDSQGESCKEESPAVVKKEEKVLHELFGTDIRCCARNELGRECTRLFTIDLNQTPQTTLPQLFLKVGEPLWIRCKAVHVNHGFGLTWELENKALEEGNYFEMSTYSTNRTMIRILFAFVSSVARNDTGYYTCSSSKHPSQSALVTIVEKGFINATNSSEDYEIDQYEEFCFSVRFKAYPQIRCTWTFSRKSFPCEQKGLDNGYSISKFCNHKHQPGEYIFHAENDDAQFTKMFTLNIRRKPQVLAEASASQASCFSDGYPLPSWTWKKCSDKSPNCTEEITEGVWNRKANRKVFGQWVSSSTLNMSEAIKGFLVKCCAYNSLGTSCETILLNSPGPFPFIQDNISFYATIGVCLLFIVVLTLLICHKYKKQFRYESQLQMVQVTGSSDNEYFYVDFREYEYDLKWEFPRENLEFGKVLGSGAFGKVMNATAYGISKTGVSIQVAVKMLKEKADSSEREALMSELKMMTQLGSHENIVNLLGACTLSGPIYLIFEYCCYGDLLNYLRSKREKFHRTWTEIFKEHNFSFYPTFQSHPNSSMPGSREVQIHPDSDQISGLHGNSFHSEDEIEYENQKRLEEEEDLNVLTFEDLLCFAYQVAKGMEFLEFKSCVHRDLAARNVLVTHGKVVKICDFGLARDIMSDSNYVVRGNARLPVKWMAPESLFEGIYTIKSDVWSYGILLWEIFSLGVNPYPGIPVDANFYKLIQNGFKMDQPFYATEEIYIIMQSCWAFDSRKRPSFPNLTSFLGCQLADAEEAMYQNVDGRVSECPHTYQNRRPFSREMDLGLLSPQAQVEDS

IKBKB (human) = IKBKB (human) (UniProt O14920)
[1] = molecular target: JAK3 JH1 catalytic (human) (UniProt P52333)
KDR (human) = KDR (human) (UniProt P35968)
MAP2K2 (human) = MAP2K2 (human) (UniProt P36507)
MAP2K3 (human) = MAP2K3 (human) (UniProt P46734)
Chain of MAP2K3 (human) (P46734 whole entry, looked up): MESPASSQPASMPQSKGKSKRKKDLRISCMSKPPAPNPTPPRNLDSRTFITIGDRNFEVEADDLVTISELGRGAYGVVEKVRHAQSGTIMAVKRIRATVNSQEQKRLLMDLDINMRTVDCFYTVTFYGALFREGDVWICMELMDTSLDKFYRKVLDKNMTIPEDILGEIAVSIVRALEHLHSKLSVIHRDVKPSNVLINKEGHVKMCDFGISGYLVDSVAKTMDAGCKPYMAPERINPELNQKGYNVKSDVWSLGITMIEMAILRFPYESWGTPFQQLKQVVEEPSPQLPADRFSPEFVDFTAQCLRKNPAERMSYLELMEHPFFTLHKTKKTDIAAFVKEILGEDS

MAP3K1 (human) = MAP3K1 (human) (UniProt Q13233)
MAP4K1 (human) = MAP4K1 (human) (UniProt Q92918)
MAPK14 (human) = MAPK14 (human) (UniProt Q16539)
MAPK6 (human) = MAPK6 (human) (UniProt Q16659)
MAPKAPK2 (human) = MAPKAPK2 (human) (UniProt P49137)
NEK3 (human) = NEK3 (human) (UniProt P51956)
OXSR1 (human) = OXSR1 (human) (UniProt O95747)
Chain of OXSR1 (human) (O95747 whole entry, looked up): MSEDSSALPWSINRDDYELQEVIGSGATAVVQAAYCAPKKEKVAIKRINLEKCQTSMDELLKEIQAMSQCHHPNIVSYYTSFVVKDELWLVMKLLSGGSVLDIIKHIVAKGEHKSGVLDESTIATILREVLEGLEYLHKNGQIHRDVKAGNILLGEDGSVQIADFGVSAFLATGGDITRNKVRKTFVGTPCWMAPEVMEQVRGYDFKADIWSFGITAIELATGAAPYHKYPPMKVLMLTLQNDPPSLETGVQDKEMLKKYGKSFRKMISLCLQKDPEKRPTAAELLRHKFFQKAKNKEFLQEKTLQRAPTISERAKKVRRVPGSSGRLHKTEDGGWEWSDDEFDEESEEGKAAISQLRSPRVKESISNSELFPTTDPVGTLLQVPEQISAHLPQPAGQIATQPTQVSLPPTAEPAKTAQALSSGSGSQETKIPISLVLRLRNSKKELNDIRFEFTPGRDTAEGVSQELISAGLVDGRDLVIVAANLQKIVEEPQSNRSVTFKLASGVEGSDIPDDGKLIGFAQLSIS

PHKG2 (human) = PHKG2 (human) (UniProt P15735)
[2] = tested on: PIK3CA (human), P42336 [H1047Y]
PIM1 (human) = PIM1 (human) (UniProt P11309)
Chain of PIM1 (human) (P11309 whole entry, looked up): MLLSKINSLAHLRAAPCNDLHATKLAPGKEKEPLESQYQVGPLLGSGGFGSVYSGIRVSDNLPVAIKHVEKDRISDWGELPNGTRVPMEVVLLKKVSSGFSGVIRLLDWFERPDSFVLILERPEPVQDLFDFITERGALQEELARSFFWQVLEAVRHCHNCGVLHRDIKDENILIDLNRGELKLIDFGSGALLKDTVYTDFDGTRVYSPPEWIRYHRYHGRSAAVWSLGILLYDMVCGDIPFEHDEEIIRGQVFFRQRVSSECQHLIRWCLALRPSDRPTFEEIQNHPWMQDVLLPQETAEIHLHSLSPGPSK

PKN3 (M.tuberculosis) = PKN3 (M.tuberculosis) (UniProt Q6P5Z2)
PRKD1 (human) = PRKD1 (human) (UniProt Q15139)
PRKD3 (human) = PRKD3 (human) (UniProt O94806)
PRPF4B (human) = PRPF4B (human) (UniProt Q13523)
RIOK3 (human) = RIOK3 (human) (UniProt O14730)
ROCK2 (human) = ROCK2 (human) (UniProt O75116)
Chain of ROCK2 (human) (O75116 whole entry, looked up): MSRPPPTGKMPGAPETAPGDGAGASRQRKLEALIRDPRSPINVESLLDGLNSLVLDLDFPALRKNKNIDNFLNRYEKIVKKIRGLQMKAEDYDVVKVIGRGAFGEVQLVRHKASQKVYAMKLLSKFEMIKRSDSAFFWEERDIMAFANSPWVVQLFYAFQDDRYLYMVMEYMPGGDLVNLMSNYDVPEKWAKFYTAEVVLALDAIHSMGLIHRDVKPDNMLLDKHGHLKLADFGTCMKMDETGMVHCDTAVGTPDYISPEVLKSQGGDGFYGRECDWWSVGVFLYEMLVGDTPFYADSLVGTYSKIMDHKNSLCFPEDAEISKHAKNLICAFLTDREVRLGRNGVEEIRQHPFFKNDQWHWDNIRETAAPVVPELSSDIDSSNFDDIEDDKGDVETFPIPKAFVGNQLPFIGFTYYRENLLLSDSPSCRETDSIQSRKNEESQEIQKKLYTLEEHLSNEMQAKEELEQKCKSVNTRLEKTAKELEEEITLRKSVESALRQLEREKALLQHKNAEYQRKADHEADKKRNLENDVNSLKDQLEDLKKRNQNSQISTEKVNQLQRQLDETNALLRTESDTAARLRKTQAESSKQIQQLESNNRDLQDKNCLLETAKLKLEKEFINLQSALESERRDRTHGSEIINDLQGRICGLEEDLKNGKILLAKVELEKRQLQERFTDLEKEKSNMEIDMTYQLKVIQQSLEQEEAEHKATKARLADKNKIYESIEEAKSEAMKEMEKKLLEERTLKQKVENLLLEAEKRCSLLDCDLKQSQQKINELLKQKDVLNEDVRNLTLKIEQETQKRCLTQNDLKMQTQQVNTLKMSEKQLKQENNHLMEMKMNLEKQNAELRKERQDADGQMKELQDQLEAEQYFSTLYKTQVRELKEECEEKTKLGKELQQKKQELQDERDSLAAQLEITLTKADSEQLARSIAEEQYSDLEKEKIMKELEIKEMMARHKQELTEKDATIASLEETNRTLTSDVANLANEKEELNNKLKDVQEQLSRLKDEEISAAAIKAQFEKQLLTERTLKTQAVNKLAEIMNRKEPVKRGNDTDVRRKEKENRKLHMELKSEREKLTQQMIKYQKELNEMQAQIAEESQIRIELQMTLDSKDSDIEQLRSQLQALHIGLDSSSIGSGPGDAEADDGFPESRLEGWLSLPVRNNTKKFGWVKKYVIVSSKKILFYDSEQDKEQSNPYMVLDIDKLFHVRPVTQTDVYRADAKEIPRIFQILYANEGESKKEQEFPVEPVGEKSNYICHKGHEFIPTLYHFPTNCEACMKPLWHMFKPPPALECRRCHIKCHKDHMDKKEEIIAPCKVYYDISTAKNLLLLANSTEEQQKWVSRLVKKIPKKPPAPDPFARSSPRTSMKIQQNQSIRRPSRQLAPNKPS

STK10 (human) = STK10 (human) (UniProt O94804)
Chain of STK10 (human) (O94804 whole entry, looked up): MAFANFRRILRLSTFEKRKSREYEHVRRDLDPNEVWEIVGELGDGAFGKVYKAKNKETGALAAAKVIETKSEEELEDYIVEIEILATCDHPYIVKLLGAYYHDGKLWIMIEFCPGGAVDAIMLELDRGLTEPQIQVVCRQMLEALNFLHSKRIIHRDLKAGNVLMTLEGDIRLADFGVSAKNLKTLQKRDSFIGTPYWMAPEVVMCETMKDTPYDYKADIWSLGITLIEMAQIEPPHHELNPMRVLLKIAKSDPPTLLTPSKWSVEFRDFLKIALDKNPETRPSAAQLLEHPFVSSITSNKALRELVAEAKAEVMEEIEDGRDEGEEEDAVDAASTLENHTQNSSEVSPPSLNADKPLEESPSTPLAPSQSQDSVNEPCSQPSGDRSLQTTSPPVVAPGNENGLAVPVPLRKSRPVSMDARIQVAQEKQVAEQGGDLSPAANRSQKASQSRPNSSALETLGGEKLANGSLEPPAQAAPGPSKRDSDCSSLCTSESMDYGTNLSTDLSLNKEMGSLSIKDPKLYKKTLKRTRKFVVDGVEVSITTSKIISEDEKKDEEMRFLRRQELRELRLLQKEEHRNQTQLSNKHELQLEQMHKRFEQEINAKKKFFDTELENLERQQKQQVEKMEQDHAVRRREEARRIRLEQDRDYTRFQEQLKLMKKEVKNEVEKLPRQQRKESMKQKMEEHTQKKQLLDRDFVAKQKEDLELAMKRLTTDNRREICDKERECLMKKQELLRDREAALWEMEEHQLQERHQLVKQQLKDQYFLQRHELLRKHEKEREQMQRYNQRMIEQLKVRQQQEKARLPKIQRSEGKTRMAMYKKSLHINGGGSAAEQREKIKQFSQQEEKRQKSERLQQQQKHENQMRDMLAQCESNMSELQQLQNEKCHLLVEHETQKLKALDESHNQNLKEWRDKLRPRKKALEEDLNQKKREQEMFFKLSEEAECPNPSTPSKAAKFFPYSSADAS

STK11 (human) = STK11 (human) (UniProt Q15831)
STK35 (human) = STK35 (human) (UniProt Q8TDR2)
STK38L (human) = STK38L (human) (UniProt Q9Y2H1)
TBK1 (human) = TBK1 (human) (UniProt Q9UHD2)
TNIK (human) = TNIK (human) (UniProt Q9UKE5)
TNK1 (human) = TNK1 (human) (UniProt Q13470)
TYRO3 (human) = TYRO3 (human) (UniProt Q06418)
ULK3 (human) = ULK3 (human) (UniProt Q6PHR2)
Chain of ULK3 (human) (Q6PHR2 whole entry, looked up): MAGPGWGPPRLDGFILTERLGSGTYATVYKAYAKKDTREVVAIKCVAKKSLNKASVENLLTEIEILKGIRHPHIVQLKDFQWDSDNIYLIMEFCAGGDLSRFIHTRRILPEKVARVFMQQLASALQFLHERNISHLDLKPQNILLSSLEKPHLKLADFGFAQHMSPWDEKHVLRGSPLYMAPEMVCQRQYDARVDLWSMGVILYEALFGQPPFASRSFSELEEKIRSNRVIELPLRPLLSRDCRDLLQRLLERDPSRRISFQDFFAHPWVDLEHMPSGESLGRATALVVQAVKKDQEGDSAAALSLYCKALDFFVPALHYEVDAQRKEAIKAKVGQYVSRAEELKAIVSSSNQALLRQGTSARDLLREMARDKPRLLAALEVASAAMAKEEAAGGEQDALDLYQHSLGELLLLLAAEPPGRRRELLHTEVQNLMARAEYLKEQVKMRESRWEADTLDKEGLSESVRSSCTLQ

YES1 (human) = YES1 (human) (UniProt P07947)
ZAP70 (human) = ZAP70 (human) (UniProt P43403)

| Compound | kinase still bound, per cent of control (ACVR1B (human)) | kinase still bound, per cent of control (CDC2L2 (human)) | kinase still bound, per cent of control (CDK16 (human)) | kinase still bound, per cent of control (DCLK1 (human)) | kinase still bound, per cent of control (DSTYK (human)) | kinase still bound, per cent of control (EPHB2 (human)) | kinase still bound, per cent of control (FES (human)) | kinase still bound, per cent of control (FLT3 (human)) | kinase still bound, per cent of control (IKBKB (human)) | kinase still bound, per cent of control [1] | kinase still bound, per cent of control (KDR (human)) | kinase still bound, per cent of control (MAP2K2 (human)) | kinase still bound, per cent of control (MAP2K3 (human)) | kinase still bound, per cent of control (MAP3K1 (human)) | kinase still bound, per cent of control (MAP4K1 (human)) | kinase still bound, per cent of control (MAPK14 (human)) | kinase still bound, per cent of control (MAPK6 (human)) | kinase still bound, per cent of control (MAPKAPK2 (human)) | kinase still bound, per cent of control (NEK3 (human)) | kinase still bound, per cent of control (OXSR1 (human)) | further results |
| --- | --- | --- | --- | --- | --- | --- | --- | --- | --- | --- | --- | --- | --- | --- | --- | --- | --- | --- | --- | --- | --- |
| O=C(NC1CC1)c1cccc(-c2ccc3c(NC(=O)C4CC4)n[nH]c3c2)c1 | 59% | 85% | 5% | 96% | 71% | 98% | 100% | 63% | 78% | 27% | 93% | 82% | 33% | 100% | 68% | 2% | 78% | 100% | 75% | 98% | kinase still bound, per cent of control (PHKG2 (human)): 84%; kinase still bound, per cent of control [2]: 89%; kinase still bound, per cent of control (PIM1 (human)): 70%; kinase still bound, per cent of control (PKN3 (M.tuberculosis)): 15%; kinase still bound, per cent of control (PRKD1 (human)): 100%; kinase still bound, per cent of control (PRKD3 (human)): 100%; kinase still bound, per cent of control (PRPF4B (human)): 53%; kinase still bound, per cent of control (RIOK3 (human)): 6.8%; kinase still bound, per cent of control (ROCK2 (human)): 53%; kinase still bound, per cent of control (STK10 (human)): 57%; kinase still bound, per cent of control (STK11 (human)): 45%; kinase still bound, per cent of control (STK35 (human)): 16%; kinase still bound, per cent of control (STK38L (human)): 96%; kinase still bound, per cent of control (TBK1 (human)): 61%; kinase still bound, per cent of control (TNIK (human)): 25%; kinase still bound, per cent of control (TNK1 (human)): 100%; kinase still bound, per cent of control (TYRO3 (human)): 100%; kinase still bound, per cent of control (ULK3 (human)): 13%; kinase still bound, per cent of control (YES1 (human)): 92%; kinase still bound, per cent of control (ZAP70 (human)): 90% |
| CN(C)C/C=C/C(=O)Nc1cccc(Nc2ncc3c(n2)N(C)c2ccccc2C(=O)N3C)c1 | 53% | 100% | 95% | 4% | 18% | 100% | 67% | 73% | 100% | 1.2% | 90% | 78% | 100% | 72% | 38% | 100% | 46% | 100% | 58% | 25% | kinase still bound, per cent of control (PHKG2 (human)): 25%; kinase still bound, per cent of control [2]: 51%; kinase still bound, per cent of control (PIM1 (human)): 66%; kinase still bound, per cent of control (PKN3 (M.tuberculosis)): 42%; kinase still bound, per cent of control (PRKD1 (human)): 15%; kinase still bound, per cent of control (PRKD3 (human)): 19%; kinase still bound, per cent of control (PRPF4B (human)): 100%; kinase still bound, per cent of control (RIOK3 (human)): 16%; kinase still bound, per cent of control (ROCK2 (human)): 58%; kinase still bound, per cent of control (STK10 (human)): 30%; kinase still bound, per cent of control (STK11 (human)): 100%; kinase still bound, per cent of control (STK35 (human)): 89%; kinase still bound, per cent of control (STK38L (human)): 54%; kinase still bound, per cent of control (TBK1 (human)): 58%; kinase still bound, per cent of control (TNIK (human)): 29%; kinase still bound, per cent of control (TNK1 (human)): 0.4%; kinase still bound, per cent of control (TYRO3 (human)): 100%; kinase still bound, per cent of control (ULK3 (human)): 45%; kinase still bound, per cent of control (YES1 (human)): 13%; kinase still bound, per cent of control (ZAP70 (human)): 60% |
| CCN1CCN(Cc2ccc(Nc3ncc4c(n3)N(C)c3ccccc3C(=O)N4C)cc2C(F)(F)F)CC1 | 100% | 97% | 92% | 4.4% | 7.1% | 100% | 100% | 100% | 100% | 9.8% | 100% | 89% | 74% | 55% | 18% | 100% | 20% | 100% | 100% | 59% | kinase still bound, per cent of control (PHKG2 (human)): 47%; kinase still bound, per cent of control [2]: 3.3%; kinase still bound, per cent of control (PIM1 (human)): 86%; kinase still bound, per cent of control (PKN3 (M.tuberculosis)): 22%; kinase still bound, per cent of control (PRKD1 (human)): 17%; kinase still bound, per cent of control (PRKD3 (human)): 8%; kinase still bound, per cent of control (PRPF4B (human)): 76%; kinase still bound, per cent of control (RIOK3 (human)): 38%; kinase still bound, per cent of control (ROCK2 (human)): 100%; kinase still bound, per cent of control (STK10 (human)): 28%; kinase still bound, per cent of control (STK11 (human)): 89%; kinase still bound, per cent of control (STK35 (human)): 76%; kinase still bound, per cent of control (STK38L (human)): 90%; kinase still bound, per cent of control (TBK1 (human)): 60%; kinase still bound, per cent of control (TNIK (human)): 100%; kinase still bound, per cent of control (TNK1 (human)): 0.3%; kinase still bound, per cent of control (TYRO3 (human)): 92%; kinase still bound, per cent of control (ULK3 (human)): 7.4%; kinase still bound, per cent of control (YES1 (human)): 6.6%; kinase still bound, per cent of control (ZAP70 (human)): 90% |
